Where two headings read alike, the source gives them in different places.
How the values were obtained:
[1] = footnote of Table 2, cited from earlier work
[2] = solubility of HDTC in alcohols; assay type: physicochemical; details: alcohols (methanol, ethanol and isopropanol)
Method: The HDTC may be made by any of the methods known to those in the art. One relatively simple method for producing HDTC in quantitative yields is to react carbon disulfide with hydrazine in a molar ratio of 1:2 in an alcohol at 0°-30° C. Appropriate alcohols include methanol, ethanol and isopropanol. […] If hydrazine hydrate is used to produce the HDTC, the water present in the alcohol upon completion of the reaction may be removed by distillation.

Row | Compound | pKb ([1]; pKb) | pKb ([1]; second printed pKb) | solubility in alcohols [2]
1 | C1CN2CCN1CC2 [DABCO, diazabicyclooctane] | 3.0 | 8.7 | 
2 | CN(C)c1ccncc1 [DMAP, dimethylaminopyridine] | 4.3 |  | 
3 | NNC(=S)S [HDTC, Hydrazinium-dithiocarbazinate] |  |  | virtually insoluble
4 | CCN(CC)CC [TEA, triethylamine] | 3.35 |  | 
